This is an account of results in PubChem BioAssay (NCI).

Test systems include MDA-N; P388 leukemia; P388/ADR leukemia; SN12K1 renal.
Assay in all cases: NCI tumour cell line growth inhibition, 48 h

Values after ≈ are worked out from the molar mass of the structure shown. Values joined by “and” are separate entries in the source; they are usually repeats but may differ in a detail not shown here. Equal values may be shown once.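 Compound exposure: 48 hours, 5 concentrations, 96-well plates. GI50 = concentration required for 50% inhibition of growth. The concentration for full growth arrest is given as TGI.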

In the case of `COc1ccc(C2SC(N)=Nc3c2c(C)nn3C(=O)c2ccc(Cl)cc2)cc1OC` (stereo not drawn), in the assay with MDA-N, the TGI was > 10 µM.
As for `Nc1c(C(=O)Nc2ccc([As](=O)(O)O)cc2)cnc2nnnn12`, the TGI with MDA-N is > 100 µM.
`Cc1cc2c(cc1C)NC1=C(N2)OC(c2c[nH]c3ccc(COc4ccccc4)cc23)C1=O` (stereo not drawn): the TGI in the assay with MDA-N is > 100 µM.
As for `COc1cc(-c2oc3ccccc3c(=O)c2O)cc(OC)c1OC`, the TGI with MDA-N is > 100 µM.
On to `Nc1cc2c3c(cccc3c1)NC2=O`, for which, in the assay on MDA-N, the TGI is > 100 µM.
In the assay on MDA-N, `CC(C)c1ccc2nc3ccc(C(=O)NCCN(C)C)cn3c(=O)c2c1` had a TGI of 31.8 µM.
Consider `Clc1ccccc1NN(Cc1ccccn1)c1ccccc1Cl`, for which the TGI with MDA-N was 36 µM.
With `COC(=O)c1ccc2c(c1)C(NC(C)=O)CCc1cc(OC)c(OC)c(OC)c1-2` (stereo not drawn), the TGI with MDA-N is < 0.01 µM.
Consider `CSc1ccc(/C=C2\CNC/C(=C\c3ccc(SC)cc3)C2=O)cc1`, for which the GI50 is 150 µg/mL (≈ 408 µM) in the assay on P388 leukemia, 150 µg/mL (≈ 408 µM) in the assay on P388/ADR leukemia and 15.5 µg/mL (≈ 42.1 µM) in the assay on SN12K1 renal. Besides, the values for the TGI in the assay with P388 leukemia, in the assay with P388/ADR leukemia and with SN12K1 renal were 150 µg/mL (≈ 408 µM), 150 µg/mL (≈ 408 µM) and 103 µg/mL (≈ 280 µM), respectively.
On to `CC1(C)CCC(C)(C)c2cc(C(=O)Nc3ccc(C(=O)O)cc3)ccc21`, for which the TGI in the assay with MDA-N is > 62.8 µM.
For `CC1(C)O[C@H]2OC3CCC(=O)CC3(O)[C@H]2O1` (stereo partly drawn), the TGI in the assay on MDA-N was > 100 µM.
Regarding `O=C(CC(C(=O)c1cccs1)c1ccc2c(c1)OCO2)c1ccc(Br)cc1` (stereo not drawn), in the assay on MDA-N, the TGI was > 100 µM.
In turn, `CCc1nc(N)nc(N)c1-c1ccc([N+](=O)[O-])c(NCc2ccccc2)c1` came in with a TGI in the assay on MDA-N of 34.8 µM.
The same measure, in the same setting: the figure for `COC1/C=C/OC2(C)Oc3c(C)c(O)c4c(c3C2=O)C(=O)C=C(NC(=O)/C(C)=C\C=C\C(C)C(OC=O)C(C)C(O)C(C)C(OC(C)=O)C1C)C4=O` (stereo not drawn) is > 50.7 µM.
In the case of `CN1C2CC(C#N)C1C=CC2=O` (stereo not drawn), in the assay with MDA-N, the GI50 is 19.2 µM and 63.3 µM; the TGI is 43.1 µM and > 100 µM.
In turn, `CC(CO)[C@H]1OC(=O)C=C2[C@@]13O[C@@H]3[C@H]1OC(=O)[C@@]3(C)[C@H]4O[C@H]4C[C@@]2(C)[C@@H]13` (stereo partly drawn) had a TGI in the assay with MDA-N of 14 µM.
Same read-out and setting: the figure for `O=c1oc2ccccc2c(O)c1C=NC(=S)c1ccncc1` is > 100 µM.
